The values that follow come from patent US4623649A, “Substituted β-carbolines, and use thereof as medicinal agents” (Schering Aktiengesellschaft, priority 1983, dated 1986).

In the first assay the target is benzodiazepine receptors. Description: in vitro displacement of 3H flunitrazepam (or 3H diazepam) from benzodiazepine receptors, rat cerebrum suspension. As to conditions: rat cerebral membrane suspension, 3H flunitrazepam 1.0 nM, 0° C., pH 7.1. In kind it is binding. A general note: In a radioligand displacement assay an active substance lowers the binding of a labelled ligand.
Take `CCOC(=O)c1ncc2[nH]c3ccc(C4CCCC(=O)C4)cc3c2c1C` (stereo not drawn): the “IC50, displacement of specific binding of 3H flunitrazepam (in vitro)” value stood at 0.6 ng/mL.
Still for that read-out and setting: the value for `CCOC(=O)c1ncc2[nH]c3cccc(Cc4ccccc4)c3c2c1COC` [CO2 Et, CH2 OCH3, CH2C6 H5, H, 5-benzyl-4-methoxymethyl-β-carboline-3-carboxylic acid ethyl ester] was 0.5 ng/mL; that for `CCOC(=O)c1ncc2[nH]c3ccc(CCc4ccccc4)cc3c2c1C` [CO2 Et, Me, H, CH2CH2C6 H5, 6-phenethyl-4-methyl-β-carboline-3-carboxylic acid ethyl ester] was 14 ng/mL; that for “4-methoxymethyl-6-(1- and 2-cyclohexen-4-yl)-β-carboline-3-carboxylic acid ethyl ester” was 0.7 ng/mL.
As to `CCOC(=O)c1cc2c(cn1)[nH]c1ccc(C(C)C)cc12`, the “IC50, displacement of specific binding of 3H flunitrazepam (in vitro)” value worked out at 0.9 ng/mL.
As to `CCOC(=O)c1ncc2[nH]c3ccc(C(C)(C)C)cc3c2c1C` [CO2 Et, Me, H, C(CH3)3, 6-tert-butyl-4-methyl-β-carboline-3-carboxylic acid ethyl ester], the “IC50, displacement of specific binding of 3H flunitrazepam (in vitro)” value was 7.5 ng/mL.
For the compound “6-(1- and 2-cyclohexen-4-yl)-4-methoxymethyl-3-(3-ethyl-1,2,4-oxadiazol-5-yl)-β-carboline”, the “IC50, displacement of specific binding of 3H flunitrazepam (in vitro)” value stood at 1.5 ng/mL.
Same read-out and setting: then `CCOC(=O)c1ncc2[nH]c3ccc(C4=CCCCCCC4)cc3c2c1C`, with 19 ng/mL.
Take `CCOC(=O)c1ncc2[nH]c3ccc(C4CCCCC4)cc3c2c1C`: the “IC50, displacement of specific binding of 3H flunitrazepam (in vitro)” value came out at 12 ng/mL.

The next assay has as its system benzodiazepine receptor. Description: in vivo reduction of specific binding of 3H flunitrazepam to the benzodiazepine receptor in living brain, mice. As to conditions: normally subcutaneous, 3H flunitrazepam i.v. after 15 minutes, sacrificed after another 20 minutes. Also on record: unit not given beside the values.
As to “4-methoxymethyl-6-(1- and 2-cyclohexen-4-yl)-β-carboline-3-carboxylic acid ethyl ester”, the “ED50, reduction of specific binding of flunitrazepam to 50% of control (in vivo)” value came out at 0.5.
Turning to “6-(1- and 2-cyclohexen-4-yl)-4-methoxymethyl-3-(3-ethyl-1,2,4-oxadiazol-5-yl)-β-carboline”, the “ED50, reduction of specific binding of flunitrazepam to 50% of control (in vivo)” value is given as 1.9.

In a further assay the target is benzodiazepine receptors.
Experiment: not given
The settings on record: footnote * Nature 294(1981)472; cited from earlier work.
As for `COC(=O)c1cc2c(cn1)[nH]c1ccccc12` [CO2 Me, H, H, H], the “IC50, displacement of specific binding of 3H flunitrazepam (in vitro), entry footnoted Nature 294(1981)472” value is 1.9 ng/mL.
